Patent publication US20190119282A1, “IMIDAZOPYRIDAZINES USEFUL AS INHIBITORS OF THE PAR-2 SIGNALING PATHWAY” (Vertex Pharmaceuticals Incorporated, priority 2013, published 2019)
pIC50: −log10 of the molar value.

How the values were obtained:
[1] = target: T1, PAR2 (HT-29 cells, trypsin activation) (Homo sapiens, UniProt P55085); assay: Ca FLIPR TETRA assay, ANTAGONIST mode, stimulation with 3.1 U/mL trypsin; type: cell-based; conditions: HT-29 cells
T1 construct: host or cells: HT-29 cells
T1 sequence (P55085 26-397): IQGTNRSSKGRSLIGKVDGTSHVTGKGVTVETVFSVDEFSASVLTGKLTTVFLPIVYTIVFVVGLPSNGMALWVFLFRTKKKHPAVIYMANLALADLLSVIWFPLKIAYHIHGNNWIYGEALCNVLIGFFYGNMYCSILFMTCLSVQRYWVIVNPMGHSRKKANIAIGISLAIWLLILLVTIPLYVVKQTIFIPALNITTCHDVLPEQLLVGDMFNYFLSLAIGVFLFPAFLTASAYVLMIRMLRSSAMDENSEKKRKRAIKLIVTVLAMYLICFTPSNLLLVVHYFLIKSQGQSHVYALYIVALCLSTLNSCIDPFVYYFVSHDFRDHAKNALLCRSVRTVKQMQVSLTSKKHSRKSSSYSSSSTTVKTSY
Description: (§1) Example 60: Protocol for Testing PAR2 Compounds in ANTAGONIST Mode Using the Ca FLIPR^TETRA Assay (384 Well)
(§2) 23000 HT-29 cells (ATCC# HTB-38) were plated in 384-well black, transparent-flat bottom plates and incubated in 25 uL of 1% FBS/McCoy's media ON at 37° C. under an atmosphere of 5% CO2. The following day, 25 uL FLIPR calcium 5 Molecular Devices assay reagent (Cat: R-8186) was added. Plates were incubated at 37° C. and r. t. for 45 min and 15 min, respectively. Compounds dilutions were prepared in 100% DMSO using a Biomek FX and diluted 20-fold in HBSS and then 5.5 uL was added directly to the cells by the FLIPR^TETRA (10× dilution) using FLIPR Tetra Pipette tips, black, non-sterile, 384 Molecular Devices (Cat: 9000-0764).
(§3) A first read was performed to determine whether the test compounds on their own can activate Ca2+ responses.
(§4) The cells were incubated with the compounds for 30 min at r. t. and then read in ANTAGONIST mode in the same plate by stimulating with 6.2 uL of a fixed concentration of the activator: final concentrations: 8 μM SLIGKV, 1 U/mL Thrombin, 3.1 U/mL trypsin, or 0.6 μM UTP.

[2] = target: T2, PAR2 (HT-29 cells, SLIGKV activation) (Homo sapiens, UniProt P55085); assay: Ca FLIPR TETRA assay, ANTAGONIST mode, stimulation with 8 μM SLIGKV; type: cell-based; conditions: for pIC50: HT-29 cells; for SLIGKV % @ concentration: @ 1.9 (μM)
T2 construct: host or cells: HT-29 cells
T2 sequence (P55085 26-397): T1 sequence (P55085 26-397)
Description: as §1, §2, §3, §4

[3] = system: UTP-stimulated Ca2+ response in HT-29 cells; assay: Ca FLIPR TETRA assay, ANTAGONIST mode, stimulation with 0.6 μM UTP; type: cell-based, human; conditions: Homo sapiens, HT-29 cells, stimulation with 0.6 μM UTP
Description: as §1, §2, §3, §4

[4] = system: Thrombin-stimulated Ca2+ response in HT-29 cells; assay: Ca FLIPR TETRA assay, ANTAGONIST mode, stimulation with 1 U/mL Thrombin; type: cell-based, human; conditions: Homo sapiens, HT-29 cells, stimulation with 1 U/mL Thrombin
Description: as §1, §2, §3, §4

[5] = Table 8, reported compounds of WO2005/030773, JP2003286171, JP2004170323
[6] = antagonist mode, stimulation with 8 μM SLIGKV

Row | SMILES | pIC50 [1, 5] | pIC50 [2, 5] | pIC50 ([1]; Table 6, 3.1 U/mL trypsin) | pIC50 ([2]; Table 6, 8 μM SLIGKV) | other results
1 | CN(CCO)C(=O)c1cc2nc(-c3ccccc3)cc(C(F)(F)F)n2n1 [Compound P-602, reference compound] | < 4.30 | 4.51 |  |  | 
2 | O=C(O)C1CCCN(C(=O)c2cc3nc(-c4ccc(Cl)cc4)cc(C(F)(F)F)n3n2)C1 (centres unmarked) [Compound P-600, reference compound] | < 4.30 | 4.43 |  |  | 
3 | O=C(c1cc2nc(-c3ccc(Cl)cc3)cc(C(F)(F)F)n2n1)N1CCCCCC1 [Compound P-599, reference compound] | < 4.30 | 5.01 |  |  | 
4 | O=C(c1ccccc1)N1CCN(C(=O)c2cc3nc(-c4ccccc4)cc(C(F)(F)F)n3n2)CC1 [Compound P-596, reference compound] | < 4.30 | 4.97 |  |  | 
5 | O=C(c1cc2nc(-c3ccccc3)cc(C(F)(F)F)n2n1)N1CCC(c2ccc(F)cc2)C1 (centres unmarked) [Compound P-607, reference compound] | < 4.30 | < 4.30 |  |  | 
6 | CC(C)c1cc(Cl)nn2cc(C(=O)N3CCN(C(=O)C4(O)CCOCC4)CC3(C)C)nc12 [Compound I-588] |  |  | < 4.30 | 4.43 | 
7 | CCOC(=O)C1CCN(C(=O)c2cc3nc(-c4ccccc4)cc(C(F)(F)F)n3n2)CC1 [Compound P-603, reference compound] | 4.77 | 6.85 |  |  | 
8 | CCOC(=O)C1CCCCN1C(=O)c1cc2nc(-c3ccccc3)cc(C(F)(F)F)n2n1 (centres unmarked) [Compound P-604, reference compound] | 5.41 | 6.19 |  |  | 
9 | O=C(c1cn2nc(-c3ccc(F)cc3)cc(C(F)(F)F)c2n1)N1CCN(CCn2ccnc2)CC1 [Compound I-583] |  |  | < 4.30 | 4.64 | 
10 | Cc1cc(-c2ccc(F)cc2)nn2cc(C(=O)N3CCCC4(COC4)C3)nc12 [Compound I-586] |  |  | 4.72 | 4.89 | 
11 | O=C(c1ccccc1)N1CCN(C(=O)c2cc3nc(-c4ccc(Cl)cc4)cc(C(F)(F)F)n3n2)CC1 [Compound P-606, reference compound] | < 4.30 | 6.43 |  |  | 
12 | CCOC1CCN(C(=O)c2cn3nc(-c4ccc(F)cc4)cc(C(F)(F)F)c3n2)CC1 [Compound I-48] |  |  |  |  | pIC50 [3]: < 4.30; SLIGKV % @ concentration [2]: 51% @ 1.9; pIC50 [4]: < 4.30
13 | CC1CCCCN1C(=O)c1cc2nc(-c3ccc(Cl)cc3)cc(C(F)(F)F)n2n1 (centres unmarked) [Compound P-598, reference compound] | < 4.30 | < 4.30 |  |  | 
14 | Cc1cc(-c2ccc(F)cc2)nn2cc(C(=O)N3CCC4(COC4)C3)nc12 [Compound I-585] |  |  | 4.62 | 4.57 | 
15 | CC(C)c1cc(Cl)nn2cc(C(=O)N3CCN(C(=O)C4(O)CCC4)CC3(C)C)nc12 [Compound I-589] |  |  | < 4.30 | 4.57 | 
16 | O=C(c1cn2nc(-c3ccc(F)cc3)cc(C(F)(F)F)c2n1)N1CCN(Cc2ccccn2)CC1 [Compound I-581] |  |  | 4.34 | 4.30 | 
17 | CC(C)c1cc(C2CCOCC2)nn2cc(C(=O)N3CCN(C(=O)C4(O)CCC4)CC3(C)C)nc12 [Compound I-590] |  |  | < 4.30 | 4.70 | 
18 | CC(C)(C)c1cc(-c2ccc(F)cc2)nn2cc(C(=O)N3CCC(O)CC3(C)C)nc12 (centres unmarked) [Compound I-484, (8-(tert-butyl)-6-(4-fluorophenyl)imidazo[1,2-b]pyridazin-2-yl)(4-hydroxy-2,2-dimethylpiperidin-1-yl)methanone] |  |  |  |  | pIC50 ([1]; antagonist mode, stimulation with 3.1 U/mL trypsin): 8.02; pIC50 [2, 6]: 8.55; pIC50 ([4]; antagonist mode): < 6.00
19 | Cc1cc(F)ccc1-c1cc(C(C)C)c2nc(C(=O)N3CCNC(=O)C3(C)C)cn2n1 [Compound I-478] |  |  |  |  | pIC50 ([3]; antagonist mode): < 6.00; pIC50 [2, 6]: 6.10; pIC50 ([4]; antagonist mode): < 6.00
20 | C[C@H]1CCCCN1C(=O)c1cn2nc(-c3ccc(F)cc3)cc(C(F)(F)F)c2n1 [Compound I-65] |  |  |  |  | pIC50 [3]: < 4.30; SLIGKV % @ concentration [2]: 56% @ 1.9; pIC50 [4]: < 4.30
